Test results as given in ChEMBL document CHEMBL5584267, “Discovery of the first selective, small-molecule GFRα2/3 inhibitors through DNA-encoded library technology” (Bioorg Med Chem Lett, 2024).

Columns and labels:
[1] = target: T1, GDNF family receptor alpha-2 (Homo sapiens, UniProt O00451); assay: Inhibition of GFRalpha2 (unknown origin)
T1 sequence (O00451 whole entry): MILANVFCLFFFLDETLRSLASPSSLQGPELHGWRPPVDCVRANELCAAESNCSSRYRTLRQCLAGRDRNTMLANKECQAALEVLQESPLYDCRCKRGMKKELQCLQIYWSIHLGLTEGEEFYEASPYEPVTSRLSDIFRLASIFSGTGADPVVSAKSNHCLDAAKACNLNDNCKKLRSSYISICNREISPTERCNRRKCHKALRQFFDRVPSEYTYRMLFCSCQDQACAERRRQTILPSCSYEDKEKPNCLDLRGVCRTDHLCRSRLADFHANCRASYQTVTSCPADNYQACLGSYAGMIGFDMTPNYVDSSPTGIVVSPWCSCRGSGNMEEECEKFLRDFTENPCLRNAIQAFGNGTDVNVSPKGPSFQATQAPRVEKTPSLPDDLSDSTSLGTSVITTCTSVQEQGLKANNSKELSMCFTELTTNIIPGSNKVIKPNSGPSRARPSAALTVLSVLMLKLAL

[2] = target: T2, GDNF family receptor alpha-1 (Homo sapiens, UniProt P56159); assay: Inhibition of GFRalpha1 (unknown origin)
T2 sequence (P56159 whole entry): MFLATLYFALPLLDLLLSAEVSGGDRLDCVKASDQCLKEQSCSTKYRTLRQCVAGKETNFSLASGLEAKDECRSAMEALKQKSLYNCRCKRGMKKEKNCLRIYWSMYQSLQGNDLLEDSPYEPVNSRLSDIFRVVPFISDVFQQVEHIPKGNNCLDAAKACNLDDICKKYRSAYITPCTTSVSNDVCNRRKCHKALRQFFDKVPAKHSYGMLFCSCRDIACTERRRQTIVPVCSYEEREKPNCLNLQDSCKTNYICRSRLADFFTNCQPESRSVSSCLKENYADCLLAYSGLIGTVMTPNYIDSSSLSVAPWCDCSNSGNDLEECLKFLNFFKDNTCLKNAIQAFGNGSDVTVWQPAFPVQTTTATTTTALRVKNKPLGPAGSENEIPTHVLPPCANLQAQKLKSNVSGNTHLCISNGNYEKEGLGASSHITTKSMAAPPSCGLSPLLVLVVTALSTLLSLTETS

[3] = target: T3, GDNF family receptor alpha-2 (Homo sapiens) (UniProt O00451); assay: Inhibition of GFRalpha2 (unknown origin) assessed as maximal efficacy relative to control
T3 sequence (whole entry): T1 sequence (O00451 whole entry)

[4] = target: T4, GDNF family receptor alpha-1 (Homo sapiens) (UniProt P56159); assay: Inhibition of GFRalpha1 (unknown origin) assessed as maximal efficacy relative to control
T4 sequence (whole entry): T2 sequence (P56159 whole entry)

[5] = target: T5, GDNF family receptor alpha-3 (Homo sapiens) (UniProt O60609); assay: Inhibition of GFRalpha3 (unknown origin) assessed as maximal efficacy relative to control
T5 sequence (whole entry): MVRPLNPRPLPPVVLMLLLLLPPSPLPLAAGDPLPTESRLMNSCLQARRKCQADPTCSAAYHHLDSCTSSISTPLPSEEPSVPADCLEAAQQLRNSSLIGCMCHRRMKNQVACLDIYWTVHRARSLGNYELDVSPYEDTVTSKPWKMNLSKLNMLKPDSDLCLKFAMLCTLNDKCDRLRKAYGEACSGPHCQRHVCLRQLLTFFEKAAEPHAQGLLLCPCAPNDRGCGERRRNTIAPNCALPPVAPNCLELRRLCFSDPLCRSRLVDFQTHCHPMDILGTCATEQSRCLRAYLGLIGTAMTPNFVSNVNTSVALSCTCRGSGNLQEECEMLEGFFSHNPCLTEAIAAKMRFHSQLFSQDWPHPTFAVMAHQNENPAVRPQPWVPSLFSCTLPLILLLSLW

[6] = target: T6, Proto-oncogene tyrosine-protein kinase receptor Ret (Homo sapiens, UniProt P07949); assay: Inhibition of RET (unknown origin)
[7] = target: T7, GDNF family receptor alpha-3 (Homo sapiens, UniProt O60609); assay: Inhibition of GFRalpha3 (unknown origin)
T7 sequence (O60609 whole entry): T5 sequence (whole entry)

[8] = target: T6, Proto-oncogene tyrosine-protein kinase receptor Ret; assay: Inhibition of RET (unknown origin) assessed as maximal efficacy relative to control

T6 sequence (P07949 whole entry): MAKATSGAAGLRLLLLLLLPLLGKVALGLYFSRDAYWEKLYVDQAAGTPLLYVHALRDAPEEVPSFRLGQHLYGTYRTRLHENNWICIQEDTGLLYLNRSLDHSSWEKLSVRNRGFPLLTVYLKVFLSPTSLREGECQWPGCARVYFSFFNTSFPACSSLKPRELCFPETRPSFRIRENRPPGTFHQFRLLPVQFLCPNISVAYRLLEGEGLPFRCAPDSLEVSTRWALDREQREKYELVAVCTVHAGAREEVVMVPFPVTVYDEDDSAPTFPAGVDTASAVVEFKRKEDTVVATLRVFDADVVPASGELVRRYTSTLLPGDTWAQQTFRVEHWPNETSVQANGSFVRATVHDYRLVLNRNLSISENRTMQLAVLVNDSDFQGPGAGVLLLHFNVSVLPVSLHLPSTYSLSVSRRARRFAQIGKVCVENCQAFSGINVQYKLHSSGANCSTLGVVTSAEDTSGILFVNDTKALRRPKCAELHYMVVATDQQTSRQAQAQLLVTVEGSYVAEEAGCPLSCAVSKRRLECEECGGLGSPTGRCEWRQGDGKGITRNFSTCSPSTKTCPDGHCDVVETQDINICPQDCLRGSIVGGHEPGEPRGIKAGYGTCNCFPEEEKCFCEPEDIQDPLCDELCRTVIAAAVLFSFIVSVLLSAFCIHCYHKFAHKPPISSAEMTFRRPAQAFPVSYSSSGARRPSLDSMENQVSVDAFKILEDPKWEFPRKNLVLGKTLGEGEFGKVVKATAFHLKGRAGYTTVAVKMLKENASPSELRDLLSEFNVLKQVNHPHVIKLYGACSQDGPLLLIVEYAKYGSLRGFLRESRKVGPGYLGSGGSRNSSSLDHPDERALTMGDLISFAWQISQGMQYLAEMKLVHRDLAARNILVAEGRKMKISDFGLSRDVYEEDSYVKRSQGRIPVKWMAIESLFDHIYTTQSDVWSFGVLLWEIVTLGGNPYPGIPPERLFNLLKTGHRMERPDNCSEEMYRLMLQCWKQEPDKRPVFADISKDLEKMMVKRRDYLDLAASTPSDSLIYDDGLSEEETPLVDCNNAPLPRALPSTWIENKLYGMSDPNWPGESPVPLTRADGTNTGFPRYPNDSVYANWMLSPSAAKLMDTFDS

| SMILES | IC50 [1] [µM] | IC50 [2] [µM] | Emax [3] [%] | Emax [4] [%] | Emax [5] [%] | IC50 [6] [µM] | IC50 [7] [µM] | Emax [8] [%] |
| --- | --- | --- | --- | --- | --- | --- | --- | --- |
| O=C(O)Cc1cccc(O[C@H]2CCc3cc(-c4cnc(Nc5ccccc5)nc4)ccc32)c1 | > 100 | > 100 | 0 | 0 | 59 | 2.3 | 2.8 | 93 |
| CNC(=O)[C@H](NC(=O)Cc1cccc(O[C@H]2CCc3cc(-c4cnc(Nc5cncnc5)nc4)ccc32)c1)C1CCCCC1 | > 100 | > 100 | 0 | 0 | 0 | > 100 | > 100 | 0 |
| COC(=O)[C@H](Cc1cnc[nH]1)NC(=O)Cc1cccc(O[C@H]2CCc3cc(-c4cncc(Oc5ccccc5)c4)ccc32)c1 | > 100 | > 100 | 0 | 0 | 100 | > 100 | 7.4 | 0 |
| CNC(=O)[C@@H](Cc1c[nH]cn1)NC(=O)Cc1cccc(O[C@H]2CCc3cc(-c4cnc(Nc5ccccc5)nc4)ccc32)c1 | > 100 | 29.9 | 0 | 97 | 100 | > 100 | 13.4 | 0 |
| CNC(=O)[C@H](NC(=O)Cc1cccc(O[C@H]2CCc3cc(-c4cncnc4)ccc32)c1)C1CCCCC1 | > 100 | > 100 | 0 | 0 | 0 | 0.9 | > 100 | 100 |
| CO[C@H]1CCc2cc(-c3cnc(Nc4ccccc4)nc3)ccc21 | > 100 | > 100 | 0 | 0 | 0 | > 100 | > 100 | 0 |
| CNC(=O)[C@H](NC(=O)Cc1cccc(Oc2cnc(Nc3ccccc3)nc2)c1)C1CCCCC1 | > 100 | > 100 | 0 | 0 | 0 | > 100 | > 100 | 0 |
| O[C@H]1CCc2cc(-c3cnc(Nc4ccccc4)nc3)ccc21 | > 100 | > 100 | 0 | 0 | 71 | 16 | 8.8 | 92 |

Now from value to molecule:

| IC50 [1] [µM] | IC50 [2] [µM] | Emax [3] [%] | Emax [4] [%] | Emax [5] [%] | IC50 [6] [µM] | IC50 [7] [µM] | Emax [8] [%] | SMILES |
| --- | --- | --- | --- | --- | --- | --- | --- | --- |
| > 100 | > 100 | 0 | 0 | 0 | > 100 | > 100 | 0 | NC(=O)Cc1cccc(O[C@H]2CCc3cc(-c4cnc(Nc5ccccc5)nc4)ccc32)c1 |
| 18 | > 100 | 100 | 0 | 100 | > 100 | 26 | 0 | CNC(=O)[C@H](NC(=O)Cc1cccc(O[C@H]2CCc3cc(-c4cncc(Oc5ccccc5)c4)ccc32)c1)C1CCCCC1 |
| > 100 | > 100 | 0 | 0 | 0 | > 100 | > 100 | 0 | CNC(=O)Cc1cccc(O[C@H]2CCc3cc(-c4cnc(Nc5ccccc5)nc4)ccc32)c1 |
| 9.9 | > 100 | 66 | 0 | 66 | > 100 | 9.1 | 0 | CNC(=O)[C@H](NC(=O)Cc1cccc(O[C@H]2CCc3ccccc32)c1)C1CCCCC1 |
| 1 | 2.1 | 56 | 52 | 71 | > 100 | 0.7 | 0 | CNC(=O)[C@H](NC(=O)Cc1cccc(O[C@H]2CCc3cc(-c4cnc(Nc5ccccc5)nc4)ccc32)c1)C1CCCCC1 |
| 2.5 | 1 | 69 | 79 | 100 | 0.8 | 1.1 | 68 | NC(=O)[C@H](NC(=O)Cc1cccc(O[C@H]2CCc3cc(-c4ncc(Nc5ccccc5)cn4)ccc32)c1)C1CCCCC1 |
| 0.1 | 0.25 | 100 | 86 | 100 | > 100 | 0.2 | 0 | CNC(=O)[C@H](NC(=O)Cc1cccc(O[C@@H]2Cc3ccc(-c4cnc(Nc5ccccc5)nc4)cc3C2)c1)C1CCCCC1 (racemic) |
| 3.7 | > 100 | 46 | 0 | 70 | 1.1 | 5.4 | 65 | CNC(=O)[C@H](Cc1c[nH]cn1)NC(=O)Cc1cccc(O[C@H]2CCc3cc(-c4cnc(Nc5ccccc5)nc4)ccc32)c1 |
